From patent publication US20130071854A1, “METHODS FOR THE IDENTIFICATION AND CHARACTERIZATION OF HDAC INTERACTING COMPOUNDS” (priority 2009, published 2013)
pEC50, pIC50, pKd: −log10 of the molar value. Read-outs that look alike come from different tables or passages of the source.

How the values were obtained:
HDAC3 = target: T1, HDAC3 (Homo sapiens, UniProt O15379); assay: Chemoproteomic binding profiling, K562 cell extract, SAHA/ITF2357 probe matrix (Kd app); details: for pKd: protein HDAC3, NCoR complex
T1 construct: used to probe endogenous HDACs in K562 whole cell extracts; endogenous in cells
T1 sequence (O15379 whole entry): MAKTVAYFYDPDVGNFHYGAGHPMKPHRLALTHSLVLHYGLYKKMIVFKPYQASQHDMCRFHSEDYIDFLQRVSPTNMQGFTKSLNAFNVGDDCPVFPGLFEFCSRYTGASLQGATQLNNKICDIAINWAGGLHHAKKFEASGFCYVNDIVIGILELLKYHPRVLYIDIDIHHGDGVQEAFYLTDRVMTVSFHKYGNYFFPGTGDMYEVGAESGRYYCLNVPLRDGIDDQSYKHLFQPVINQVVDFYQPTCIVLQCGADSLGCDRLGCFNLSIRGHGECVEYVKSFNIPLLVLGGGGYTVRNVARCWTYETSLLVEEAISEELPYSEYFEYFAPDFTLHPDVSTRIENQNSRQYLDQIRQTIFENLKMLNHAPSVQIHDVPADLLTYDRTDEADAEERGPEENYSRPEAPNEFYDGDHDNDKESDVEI
T1 sequence (O75376 whole entry partner): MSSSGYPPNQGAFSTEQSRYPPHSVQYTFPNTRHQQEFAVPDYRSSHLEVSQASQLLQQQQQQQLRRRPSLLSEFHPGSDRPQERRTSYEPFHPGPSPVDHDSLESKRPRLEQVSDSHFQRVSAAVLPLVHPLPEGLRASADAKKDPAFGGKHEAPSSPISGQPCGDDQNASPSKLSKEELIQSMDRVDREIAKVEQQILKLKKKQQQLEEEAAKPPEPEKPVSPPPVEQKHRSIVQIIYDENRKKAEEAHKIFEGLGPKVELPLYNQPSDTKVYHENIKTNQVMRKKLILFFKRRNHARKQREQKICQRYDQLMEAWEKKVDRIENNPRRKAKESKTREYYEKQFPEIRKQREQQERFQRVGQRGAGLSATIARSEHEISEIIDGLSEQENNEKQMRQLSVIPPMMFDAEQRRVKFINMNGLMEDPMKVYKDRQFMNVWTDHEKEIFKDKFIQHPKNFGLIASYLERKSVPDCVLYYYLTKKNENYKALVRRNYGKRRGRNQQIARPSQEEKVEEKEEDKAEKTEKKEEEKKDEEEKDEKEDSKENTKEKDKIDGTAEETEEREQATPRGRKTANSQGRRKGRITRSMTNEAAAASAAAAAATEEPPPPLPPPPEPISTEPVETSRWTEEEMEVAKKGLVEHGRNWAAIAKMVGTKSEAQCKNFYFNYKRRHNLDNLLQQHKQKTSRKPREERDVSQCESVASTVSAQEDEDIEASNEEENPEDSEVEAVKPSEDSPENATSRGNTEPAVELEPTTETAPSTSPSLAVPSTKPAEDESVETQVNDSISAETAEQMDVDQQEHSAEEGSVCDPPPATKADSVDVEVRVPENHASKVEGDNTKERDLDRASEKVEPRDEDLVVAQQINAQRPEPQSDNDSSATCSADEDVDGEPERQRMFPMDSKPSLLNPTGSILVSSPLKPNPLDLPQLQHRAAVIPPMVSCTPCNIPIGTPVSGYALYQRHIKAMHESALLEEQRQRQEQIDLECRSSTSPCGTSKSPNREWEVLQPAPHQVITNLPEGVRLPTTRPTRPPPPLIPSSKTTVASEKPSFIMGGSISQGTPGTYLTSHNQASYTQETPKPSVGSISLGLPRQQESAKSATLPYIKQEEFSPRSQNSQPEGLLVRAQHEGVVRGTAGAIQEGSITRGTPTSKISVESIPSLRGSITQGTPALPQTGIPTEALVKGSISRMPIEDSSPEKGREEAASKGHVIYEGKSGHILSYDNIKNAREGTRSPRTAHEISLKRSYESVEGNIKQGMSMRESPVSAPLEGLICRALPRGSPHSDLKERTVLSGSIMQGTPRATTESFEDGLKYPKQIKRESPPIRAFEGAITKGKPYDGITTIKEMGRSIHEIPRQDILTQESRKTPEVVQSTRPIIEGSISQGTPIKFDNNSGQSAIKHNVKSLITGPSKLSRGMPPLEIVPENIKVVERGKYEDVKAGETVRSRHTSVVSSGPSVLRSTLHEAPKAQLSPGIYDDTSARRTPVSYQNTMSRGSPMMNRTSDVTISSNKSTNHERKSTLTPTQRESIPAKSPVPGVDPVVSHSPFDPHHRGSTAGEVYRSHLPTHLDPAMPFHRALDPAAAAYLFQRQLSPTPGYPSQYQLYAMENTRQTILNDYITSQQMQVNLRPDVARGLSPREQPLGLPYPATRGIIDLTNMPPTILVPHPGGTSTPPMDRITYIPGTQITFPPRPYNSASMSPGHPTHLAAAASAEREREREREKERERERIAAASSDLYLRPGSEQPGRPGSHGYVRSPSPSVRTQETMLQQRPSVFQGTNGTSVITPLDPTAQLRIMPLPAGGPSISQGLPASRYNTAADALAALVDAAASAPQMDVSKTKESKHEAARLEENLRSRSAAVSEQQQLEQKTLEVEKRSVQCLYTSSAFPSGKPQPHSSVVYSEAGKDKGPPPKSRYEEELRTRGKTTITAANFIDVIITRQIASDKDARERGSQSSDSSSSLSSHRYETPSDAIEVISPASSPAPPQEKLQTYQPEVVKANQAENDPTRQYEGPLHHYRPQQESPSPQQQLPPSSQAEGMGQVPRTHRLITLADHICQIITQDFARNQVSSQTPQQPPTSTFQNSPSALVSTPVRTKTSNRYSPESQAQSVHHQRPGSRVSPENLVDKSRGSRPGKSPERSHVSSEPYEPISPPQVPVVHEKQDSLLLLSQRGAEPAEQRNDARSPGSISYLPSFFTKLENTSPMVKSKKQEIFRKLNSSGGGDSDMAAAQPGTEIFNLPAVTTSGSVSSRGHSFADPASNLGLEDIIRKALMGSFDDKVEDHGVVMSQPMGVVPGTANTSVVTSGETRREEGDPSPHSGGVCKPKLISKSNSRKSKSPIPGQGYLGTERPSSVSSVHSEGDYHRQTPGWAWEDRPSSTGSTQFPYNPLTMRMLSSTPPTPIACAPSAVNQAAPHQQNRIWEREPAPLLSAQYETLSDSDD
T1 sequence (O60907 whole entry partner): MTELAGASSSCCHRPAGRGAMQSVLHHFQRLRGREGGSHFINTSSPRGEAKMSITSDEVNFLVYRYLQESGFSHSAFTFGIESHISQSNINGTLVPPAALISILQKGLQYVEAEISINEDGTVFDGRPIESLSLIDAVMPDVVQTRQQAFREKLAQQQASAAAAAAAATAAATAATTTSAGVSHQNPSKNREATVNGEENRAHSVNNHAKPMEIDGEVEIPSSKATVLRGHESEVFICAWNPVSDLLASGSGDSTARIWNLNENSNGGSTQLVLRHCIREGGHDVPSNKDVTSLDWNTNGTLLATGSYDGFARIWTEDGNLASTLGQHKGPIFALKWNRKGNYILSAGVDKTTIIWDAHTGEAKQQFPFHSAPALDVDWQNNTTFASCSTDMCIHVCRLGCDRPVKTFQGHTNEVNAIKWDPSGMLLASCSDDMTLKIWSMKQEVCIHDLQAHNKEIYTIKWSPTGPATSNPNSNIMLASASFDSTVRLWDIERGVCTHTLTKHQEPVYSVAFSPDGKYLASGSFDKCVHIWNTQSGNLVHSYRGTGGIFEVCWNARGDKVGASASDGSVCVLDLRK
T1 sequence (Q9BZK7 whole entry partner): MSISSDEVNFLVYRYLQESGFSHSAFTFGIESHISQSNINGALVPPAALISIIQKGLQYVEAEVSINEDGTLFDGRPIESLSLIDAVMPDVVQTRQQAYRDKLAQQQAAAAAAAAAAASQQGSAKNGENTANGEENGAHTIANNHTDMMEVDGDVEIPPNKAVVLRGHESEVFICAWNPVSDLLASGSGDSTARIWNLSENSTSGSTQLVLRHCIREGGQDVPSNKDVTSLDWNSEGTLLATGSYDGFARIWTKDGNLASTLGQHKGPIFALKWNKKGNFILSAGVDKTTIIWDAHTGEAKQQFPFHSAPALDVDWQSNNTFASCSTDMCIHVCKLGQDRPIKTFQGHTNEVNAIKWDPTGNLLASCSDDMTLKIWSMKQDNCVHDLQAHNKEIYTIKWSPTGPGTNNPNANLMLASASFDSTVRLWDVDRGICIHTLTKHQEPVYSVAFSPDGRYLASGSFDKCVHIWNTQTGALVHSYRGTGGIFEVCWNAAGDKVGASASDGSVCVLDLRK
T1 sequence (Q13227 whole entry partner): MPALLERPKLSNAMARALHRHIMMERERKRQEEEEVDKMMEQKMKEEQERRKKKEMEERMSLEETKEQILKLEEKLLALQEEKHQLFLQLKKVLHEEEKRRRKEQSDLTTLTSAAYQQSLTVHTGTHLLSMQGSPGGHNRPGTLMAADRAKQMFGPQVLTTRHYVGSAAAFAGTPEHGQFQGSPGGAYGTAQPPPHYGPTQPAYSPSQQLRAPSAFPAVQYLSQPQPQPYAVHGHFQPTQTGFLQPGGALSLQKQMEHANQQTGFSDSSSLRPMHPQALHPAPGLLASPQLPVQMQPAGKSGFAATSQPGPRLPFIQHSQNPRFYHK

HDAC8 = target: T2, HDAC8 (Homo sapiens, UniProt Q9BY41); assay: as above; details: protein HDAC8; class I HDAC
T2 construct: used to probe endogenous HDACs in K562 whole cell extracts; endogenous in cells

HDAC2 = target: T3, HDAC2 (Homo sapiens, UniProt Q92769); assay: as above; details: protein HDAC2; class I HDAC
T3 construct: used to probe endogenous HDACs in K562 whole cell extracts; endogenous in cells

HDAC3-NCoR complex = HDAC3-NCoR complex (Homo sapiens, UniProt O15379); assay: as above
HDAC3-NCoR complex, sequence (O15379 whole entry, one chain of several): as the sequence (O15379 whole entry) above

IFNα secretion = IFNα secretion assay in peripheral blood mononuclear cells stimulated with ODN2216; details: Homo sapiens, PBMC, read-out: EC50 inhibition of secretion of IFNα
[1] = target: MiDAC complex (HDAC1/2, DNTTIP1, CDYL, MIDEAS) (Homo sapiens, UniProt Q13547+Q92769); assay: Chemoproteomic binding profiling, K562 cell extract, SAHA/ITF2357 probe matrix (Kd app); parameters: rows headed: Kd^app CDYL; other: protein CDYL; MiDAC complex; details: protein CDYL
BZW2 = target: T4, BZW2 (Homo sapiens, UniProt Q9Y6E2); assay: Competition binding assay in cell lysate, affinity matrix, MS
T4 construct: endogenous in cells
T4 sequence (Q9Y6E2 1-419): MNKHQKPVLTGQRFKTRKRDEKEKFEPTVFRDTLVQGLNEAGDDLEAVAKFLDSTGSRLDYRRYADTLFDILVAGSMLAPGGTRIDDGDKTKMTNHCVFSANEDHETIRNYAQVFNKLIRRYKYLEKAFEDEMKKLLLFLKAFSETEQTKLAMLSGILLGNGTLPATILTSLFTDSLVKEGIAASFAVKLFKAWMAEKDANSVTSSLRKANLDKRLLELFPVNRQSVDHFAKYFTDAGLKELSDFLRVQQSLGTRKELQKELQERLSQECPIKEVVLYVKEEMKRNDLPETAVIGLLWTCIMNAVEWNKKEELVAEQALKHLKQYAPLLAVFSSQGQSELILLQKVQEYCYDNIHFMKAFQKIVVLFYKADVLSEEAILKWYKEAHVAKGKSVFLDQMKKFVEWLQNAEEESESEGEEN

ISOC1 = target: T5, ISOC1 (Homo sapiens, UniProt Q96CN7); assay: as above
T5 construct: endogenous in cells
T5 sequence (Q96CN7 1-298): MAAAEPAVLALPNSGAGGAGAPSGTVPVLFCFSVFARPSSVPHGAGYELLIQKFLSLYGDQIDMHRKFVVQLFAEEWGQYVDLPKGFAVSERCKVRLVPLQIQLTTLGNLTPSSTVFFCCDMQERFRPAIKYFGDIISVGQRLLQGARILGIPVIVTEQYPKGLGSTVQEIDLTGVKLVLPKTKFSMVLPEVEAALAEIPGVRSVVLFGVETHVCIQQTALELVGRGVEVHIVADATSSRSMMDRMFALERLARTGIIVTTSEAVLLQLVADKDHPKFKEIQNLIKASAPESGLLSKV

RBBP7 = assay: Competition binding assay in cell lysate, affinity matrix, MS (Sin3/Mi2-NuRD interactor); details: K-562 cell lysate
HSPD1 = target: T6, HSPD1 (Homo sapiens, UniProt P10809); assay: Competition binding assay in cell lysate, affinity matrix, MS
T6 construct: endogenous in cells
T6 sequence (P10809 27-573): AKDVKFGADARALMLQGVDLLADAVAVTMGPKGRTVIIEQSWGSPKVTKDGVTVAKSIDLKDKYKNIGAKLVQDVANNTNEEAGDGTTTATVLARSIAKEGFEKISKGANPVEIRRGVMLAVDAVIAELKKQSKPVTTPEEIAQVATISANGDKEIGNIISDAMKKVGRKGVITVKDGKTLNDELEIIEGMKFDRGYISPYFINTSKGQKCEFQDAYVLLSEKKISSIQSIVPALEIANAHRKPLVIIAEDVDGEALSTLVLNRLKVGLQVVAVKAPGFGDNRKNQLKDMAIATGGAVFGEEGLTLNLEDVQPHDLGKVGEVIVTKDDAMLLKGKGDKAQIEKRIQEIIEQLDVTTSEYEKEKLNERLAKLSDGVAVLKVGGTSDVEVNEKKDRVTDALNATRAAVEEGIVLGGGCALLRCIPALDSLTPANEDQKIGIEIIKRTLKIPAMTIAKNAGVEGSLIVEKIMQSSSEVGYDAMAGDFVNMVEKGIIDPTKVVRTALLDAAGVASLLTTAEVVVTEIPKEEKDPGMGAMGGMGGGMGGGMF

SIN3A = details: K-562 cell lysate
SMARCC2 = assay: Competition binding assay in cell lysate, affinity matrix, MS (SMRT/NCoR interactor)
MTA2 = assay: Competition binding assay in cell lysate, affinity matrix, MS (Mi-2/NuRD interactor)
PPP4C = target: T7, PPP4C (Homo sapiens, UniProt P60510); assay: Competition binding assay in cell lysate, affinity matrix, MS
T7 construct: endogenous in cells
T7 sequence (P60510 1-307): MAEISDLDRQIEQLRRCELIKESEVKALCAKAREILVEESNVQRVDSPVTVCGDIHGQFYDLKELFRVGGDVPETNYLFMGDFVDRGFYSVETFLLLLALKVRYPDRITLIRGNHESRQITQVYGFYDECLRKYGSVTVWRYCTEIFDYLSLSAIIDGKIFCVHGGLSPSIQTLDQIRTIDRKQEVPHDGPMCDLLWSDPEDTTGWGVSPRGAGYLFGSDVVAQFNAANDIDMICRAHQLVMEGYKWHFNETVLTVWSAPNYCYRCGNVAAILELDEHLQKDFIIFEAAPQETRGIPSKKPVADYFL

MBD3 = assay: Competition binding assay in cell lysate, affinity matrix, MS (Mi-2/NuRD interactor); details: K-562 cell lysate
MTA3 = assay: as above
DNTTIP1 = assay: Competition binding assay in cell lysate, affinity matrix, MS; details: K-562 cell lysate
[2] = test system: T8, MiDAC complex (HDAC1/2, DNTTIP1, CDYL, MIDEAS); assay: Chemoproteomic binding profiling, K562 cell extract, SAHA/ITF2357 probe matrix (Kd app); parameters: species or system human
T8 construct: Kd^app MIDEAS; other: protein MIDEAS; MiDAC complex; Kd^app DNTTIP1; other: protein DNTTIP1

GATAD2A = assay: Competition binding assay in cell lysate, affinity matrix, MS (Mi-2/NuRD interactor); details: K-562 cell lysate
NOSIP = target: T9, NOSIP (Homo sapiens, UniProt Q9Y314); assay: Competition binding assay in cell lysate, affinity matrix, MS
T9 construct: endogenous in cells

[3] = protein GPS2, read-out: Kd^app GPS2
[4] = protein NCOR1, read-out: Kd^app NCOR1
[5] = protein NCOR2, read-out: Kd^app NCOR2
[6] = protein TBL1X, read-out: Kd^app TBL1X
[7] = protein TBL1XR1, read-out: Kd^app TBL1XR1
[8] = mix of Jurkat and Ramos cell lysates

Structure (SMILES)	pKd (HDAC3)	pKd (HDAC8)	pKd (HDAC2)	pKd (HDAC3-NCoR complex; [3])	pKd (HDAC3-NCoR complex; [4])	pKd (HDAC3-NCoR complex; [5])	pKd (HDAC3-NCoR complex; [6])	pKd (HDAC3-NCoR complex; [7])	pKd [1]	pIC50 (RBBP7)	pIC50 (HSPD1; read-out: IC50)	pIC50 (SMARCC2; K-562 cell lysate)	pIC50 (MTA2; K-562 cell lysate)	pIC50 (PPP4C; read-out: IC50)	pIC50 (MBD3)	pIC50 (MTA3; K-562 cell lysate)	pIC50 (DNTTIP1)	other results
CCCCOc1ccc(CC(=O)NO)cc1 [bufexamac]	3.46	3.61	< 4.22	3.22	< 4.22	3.38	3.27	3.28	3.82	–	–	–	–	–	–	–	–	pEC50 (IFNα secretion): 5.05
O=C(CCCCCCC(=O)Nc1ccccc1)NO [SAHA, suberoylanilide hydroxamic acid]	–	–	–	–	–	–	–	–	–	5.00	≤ 5.00	5.00	5.00	≤ 5.00	6.21	5.71	6.32	pIC50 (BZW2; IC50, BZW2, K-562 cell lysate): 5.51; pIC50 (BZW2; IC50, BZW2, mix of Jurkat and Ramos cell lysates): 5.00; pIC50 (ISOC1; IC50, ISOC1, K-562 cell lysate): 5.96; pIC50 (ISOC1; IC50, ISOC1, mix of Jurkat and Ramos cell lysates): 5.66; pIC50 (HSPD1; IC50, HSPD1, mix of Jurkat and Ramos cell lysates): 5.00; pIC50 (SIN3A): 6.24; pIC50 (SMARCC2; [8]): 5.00; pIC50 (MTA2; [8]): 6.28; pIC50 (PPP4C; IC50, PPP4C, mix of Jurkat and Ramos cell lysates): 5.00; pIC50 (MTA3; [8]): 5.74
Nc1ccccc1NC(=O)CCCCCCC(=O)Nc1ccccc1 [BML-210]	5.15	< 4.07	4.46	5.40	5.15	4.82	5.40	5.40	< 4.07	–	–	–	–	–	–	–	–	selectivity for HDAC3 over HDAC1/HDAC2 (in words) (HDAC3; K562 cell extract, compared with SAHA): increase in selectivity for HDAC3 over HDAC1/HDAC2; pKd ([2]; protein DNTTIP1, read-out: Kd^app DNTTIP1): < 4.07; pKd ([2]; protein MIDEAS, read-out: Kd^app MIDEAS): < 4.07
Nc1ccccc1NC(=O)c1ccc(CNC(=O)OCc2cccnc2)cc1 [MS-275]	–	–	–	–	–	–	–	–	–	3.52	≤ 3.52	3.52	3.52	≤ 3.52	3.52	3.52	3.52	pIC50 (BZW2; read-out: IC50): ≤ 3.52; pIC50 (ISOC1; read-out: IC50): ≤ 3.52; pIC50 (GATAD2A): 3.52; pIC50 (NOSIP): ≤ 3.52
